Measurements published in US10316049B2, “Tank-binding kinase inhibitor compounds” (Gilead Sciences, Inc., priority 2015, dated 2019).

Experiments:
TBK1 = biological target: T1, TBK1 (Homo sapiens, UniProt Q9UHD2); assay: TR-FRET enzymatic activity assay, TBK1; assay type: biochemical; further: full length recombinant TBK1 at 2.5 nM
T1 construct: TBK1 and IKKε were expressed and purified as full length recombinant proteins; made in house
T1 sequence (Q9UHD2 1-729): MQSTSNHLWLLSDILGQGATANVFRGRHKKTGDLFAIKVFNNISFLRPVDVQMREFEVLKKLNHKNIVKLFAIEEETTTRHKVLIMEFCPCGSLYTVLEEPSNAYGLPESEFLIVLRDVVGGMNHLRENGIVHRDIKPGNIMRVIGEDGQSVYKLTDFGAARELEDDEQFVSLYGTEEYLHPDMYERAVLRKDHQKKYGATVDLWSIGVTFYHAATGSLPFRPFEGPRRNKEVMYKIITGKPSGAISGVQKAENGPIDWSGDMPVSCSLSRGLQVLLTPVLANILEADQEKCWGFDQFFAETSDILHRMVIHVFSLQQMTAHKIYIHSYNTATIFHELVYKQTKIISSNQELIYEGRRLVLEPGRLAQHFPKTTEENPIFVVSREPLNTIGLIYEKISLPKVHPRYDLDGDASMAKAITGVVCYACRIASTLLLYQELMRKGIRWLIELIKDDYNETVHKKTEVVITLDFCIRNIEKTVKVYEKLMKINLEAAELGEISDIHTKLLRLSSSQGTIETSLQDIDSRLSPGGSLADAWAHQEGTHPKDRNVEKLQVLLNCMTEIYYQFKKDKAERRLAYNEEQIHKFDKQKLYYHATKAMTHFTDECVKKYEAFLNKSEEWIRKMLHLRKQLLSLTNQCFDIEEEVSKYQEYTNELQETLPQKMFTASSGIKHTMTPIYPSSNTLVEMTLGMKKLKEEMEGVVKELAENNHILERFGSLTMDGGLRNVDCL
Summary of the method: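 TR-FRET detected phosphorylation of a biotinylated serine/threonine peptide using 125 nM streptavidin XL665 plus europium-labelled anti-phospho antibody. Reactions with full-length recombinant kinase ran 240 min at 25 °C before EDTA quench. Values are geometric-mean IC50s (n ≥ 4) from four-parameter dose-response fits against staurosporine and DMSO controls.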

IKKε = biological target: T2, IKKε (Homo sapiens, UniProt Q14164); assay: TR-FRET enzymatic activity assay, IKKε; assay type: biochemical; details: read-out: IKKϵ IC50; further: full length recombinant IKKε at 0.3 nM
T2 construct: TBK1 and IKKε were expressed and purified as full length recombinant proteins; made in house
T2 sequence (Q14164 1-716): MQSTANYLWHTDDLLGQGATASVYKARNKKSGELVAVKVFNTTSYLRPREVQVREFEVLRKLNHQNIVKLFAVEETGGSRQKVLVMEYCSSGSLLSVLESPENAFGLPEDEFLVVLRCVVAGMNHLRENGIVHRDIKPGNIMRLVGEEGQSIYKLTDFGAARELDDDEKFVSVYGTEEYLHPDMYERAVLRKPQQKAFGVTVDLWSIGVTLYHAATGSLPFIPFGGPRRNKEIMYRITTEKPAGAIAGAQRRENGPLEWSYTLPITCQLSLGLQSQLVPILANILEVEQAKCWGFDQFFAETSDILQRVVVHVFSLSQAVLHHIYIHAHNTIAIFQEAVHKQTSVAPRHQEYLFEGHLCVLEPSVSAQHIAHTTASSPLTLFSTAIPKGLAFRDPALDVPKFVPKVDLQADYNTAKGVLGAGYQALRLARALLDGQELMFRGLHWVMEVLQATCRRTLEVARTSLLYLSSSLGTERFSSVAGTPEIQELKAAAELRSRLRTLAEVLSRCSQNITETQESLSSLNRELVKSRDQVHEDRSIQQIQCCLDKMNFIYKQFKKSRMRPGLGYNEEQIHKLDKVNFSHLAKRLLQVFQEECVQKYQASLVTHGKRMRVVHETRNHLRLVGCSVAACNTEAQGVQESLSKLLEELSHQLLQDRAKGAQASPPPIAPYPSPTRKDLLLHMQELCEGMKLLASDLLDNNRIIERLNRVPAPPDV
Summary of the method: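 IC50 values are geometric means of at least four determinations, fitted to a four-parameter curve after normalising to 1 μM staurosporine and DMSO. Signal: Eu-cryptate anti-phospho antibody plus 125 nM streptavidin-XL665 on a biotinylated peptide. Full-length recombinant enzyme reacted 240 min, 25 °C, then EDTA-quenched.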

IC50 (TBK1) [nM] | IC50 (IKKε) [nM] | Compound
4.5 | 2.4 | Cn1cc(C2C[C@H]2C(=O)Nc2cc(-c3ccc(O[C@H]4CCN(C(=O)CO)CC4(F)F)c(C#N)c3)ccn2)cn1 (stereo in doubt) [Example 89, (1,2-trans)-N-(4-(3-cyano-4-(((S)-3,3-difluoro-1-(2-hydroxyacetyl)piperidin-4-yl)oxy)phenyl)pyridin-2-yl)-2-(1-methyl-1H-pyrazol-4-yl)cyclopropane-1-carboxamide]
529 | 314 | N#Cc1cc(-c2ccnc(NC(=O)[C@H]3C[C@@H]3[N+](=O)[O-])c2)ccc1OC1CCOCC1 (relative stereo) [Example 86, (1,2 trans)-N-(4-(3-cyano-4-((tetrahydro-2H-pyran-4-yl)oxy)phenyl)pyridin-2-yl)-2-nitrocyclopropane-1-carboxamide]
470 | > 1000 | N#Cc1cc(-c2ccnc(NC(=O)[C@H]3C[C@H]3F)c2)ccc1N1CCC(O)CC1 [Example 65, (1R,2R)—N-(4-(3-cyano-4-(4-hydroxypiperidin-1-yl)phenyl)pyridin-2-yl)-2-fluorocyclopropane-1-carboxamide]
5.5 | 18.5 | N#Cc1cc(-c2ccnc(NC(=O)C3CC3)c2)ccc1O[C@H]1CCN(C(=O)[C@@H]2CCC(=O)N2)CC1(F)F [Example 14, N-(4-(3-cyano-4-(((S)-3,3-difluoro-1-((S)-5-oxopyrrolidine-2-carbonyl)piperidin-4-yl)oxy)phenyl)pyridin-2-yl)cyclopropanecarboxamide]
492 | > 1000 | COc1cc(-c2ccnc(NC(=O)C3CC3)c2)cc(C#N)c1OC1CCOCC1 [Example 7, N-(4-(3-cyano-5-methoxy-4-((tetrahydro-2H-pyran-4-yl)oxy)phenyl)pyridin-2-yl)cyclopropanecarboxamide]
270 | 477 | CO[C@@H]1CCN(c2ccc(-c3ccnc(NC(=O)C4CC4)c3)cc2C#N)C1 [Example 97, (R)—N-(4-(3-cyano-4-(3-methoxypyrrolidin-1-yl)phenyl)pyridin-2-yl)cyclopropanecarboxamide]
> 1000 | > 1000 | N#Cc1cc(-c2ccnc(NC(=O)C3(C#N)CC3)c2)ccc1O[C@H]1CCN(C(=O)CO)C[C@H]1F [Example 63, 1-Cyano-N-(4-(3-cyano-4-(((3R,4S)-3-fluoro-1-(2-hydroxyacetyl)piperidin-4-yl)oxy)phenyl)pyridin-2-yl)cyclopropane-1-carboxamide]
> 1000 | > 1000 | CC(C)(C)OC(=O)N1CC[C@H](Oc2ccc(-c3cc(NC(=O)C4CC4)ncn3)cc2C#N)C(F)(F)C1 [Example 104, Tert-butyl (S)-4-(2-cyano-4-(6-(cyclopropanecarboxamido)pyrimidin-4-yl)phenoxy)-3,3-difluoropiperidine-1-carboxylate]
70.5 | 636 | N#Cc1cc(-c2ccnc(NC(=O)[C@@H]3C[C@H]3c3ccco3)c2)ccc1OC1CCOCC1 (relative stereo) [Example 150, Trans-N-(4-(3-cyano-4-((tetrahydro-2H-pyran-4-yl)oxy)phenyl)pyridin-2-yl)-2-(furan-2-yl)cyclopropane-1-carboxamide]
8.9 | 26.1 | CC1CC1C(=O)Nc1cc(-c2ccc(O[C@H]3CCN(C(=O)CO)C[C@H]3F)c(C#N)c2)ccn1 (stereo partly drawn) [Example 70, N-(4-(3-Cyano-4-(((3R,4S)-3-fluoro-1-(2-hydroxyacetyl)piperidin-4-yl)oxy)phenyl)pyridin-2-yl)-2-methylcyclopropanecarboxamide]
7.2 | 7.4 | Cc1n[nH]c(C(=O)N2CC[C@H](Oc3ccc(-c4cc(NC(=O)C5CC5)ncn4)cc3C#N)[C@H](F)C2)n1 [Example 30, N-(6-(3-cyano-4-(((3R,4S)-3-fluoro-1-(3-methyl-1H-1,2,4-triazole-5-carbonyl)piperidin-4-yl)oxy)phenyl)pyrimidin-4-yl)cyclopropanecarboxamide]
4.7 | 12.3 | Cn1cc([C@@H]2C[C@H]2C(=O)Nc2cc(-c3ccc(O[C@H]4CCN(C(=O)[C@@H](O)CO)CC4(F)F)c(C#N)c3)ncn2)cn1 [Example 132, (1,2-Trans)-N-(6-(3-cyano-4-(((S)-1-((S)-2,3-dihydroxypropanoyl)-3,3-difluoropiperidin-4-yl)oxy)phenyl)pyrimidin-4-yl)-2-(1-methyl-1H-pyrazol-4-yl)cyclopropane-1-carboxamide]
8 | 12.4 | N#Cc1cc(-c2cc(NC(=O)C3CC3)ncn2)ccc1O[C@H]1CCN(C(=O)c2nnc[nH]2)C[C@H]1F [Example 28, N-(6-(3-cyano-4-(((3R,4S)-3-fluoro-1-(4H-1,2,4-triazole-3-carbonyl)piperidin-4-yl)oxy)phenyl)pyrimidin-4-yl)cyclopropanecarboxamide]
8.1 | > 1000 | COc1ccc([C@@H]2C[C@H]2C(=O)Nc2cc(-c3ccc(O[C@H]4CCN(C(=O)CO)CC4(F)F)c(C#N)c3)ncn2)cn1 [Example 113, (1R,2R)—N-(6-(3-cyano-4-(((S)-3,3-difluoro-1-(2-hydroxyacetyl)piperidin-4-yl)oxy)phenyl)pyrimidin-4-yl)-2-(6-methoxypyridin-3-yl)cyclopropane-1-carboxamide]
6.6 | 11.6 | Cn1cc([C@@H]2C[C@H]2C(=O)Nc2cc(-c3ccc(O[C@H]4CCN(C(=O)[C@@H](O)CO)CC4(F)F)c(C#N)c3)ccn2)cn1 [Example 131, (1,2-Trans)-N-(4-(3-cyano-4-(((S)-1-((S)-2,3-dihydroxypropanoyl)-3,3-difluoropiperidin-4-yl)oxy)phenyl)pyridin-2-yl)-2-(1-methyl-1H-pyrazol-4-yl)cyclopropane-1-carboxamide]
52.3 | 353 | N#Cc1cc(-c2ccnc(NC(=O)C3CC3)c2)ccc1N1CC[C@H](O)C1 [Example 16, (S)—N-(4-(3-cyano-4-(3-hydroxypyrrolidin-1-yl)phenyl)pyridin-2-yl)cyclopropanecarboxamide]
61.3 | 146 | N#Cc1cc(-c2ccnc(NC(=O)[C@@H]3C[C@H]3c3cnco3)c2)ccc1OC1CCOCC1 (relative stereo) [Example 43, (1,2-trans)-N-(4-(3-cyano-4-((tetrahydro-2H-pyran-4-yl)oxy)phenyl)pyridin-2-yl)-2-(oxazol-5-yl)cyclopropane-1-carboxamide]
15.9 | 99.2 | N#Cc1cc(-c2ccnc(NC(=O)[C@@H]3C[C@H]3c3cncnc3)c2)ccc1O[C@H]1CCN(C(=O)CO)C[C@H]1F [Example 149, (1,2-Trans)-N-(4-(3-cyano-4-(((3R,4S)-3-fluoro-1-(2-hydroxyacetyl)piperidin-4-yl)oxy)phenyl)pyridin-2-yl)-2-(pyrimidin-5-yl)cyclopropane-1-carboxamide]
10.3 | 24.7 | Cn1cc(C2CC2C(=O)Nc2cc(-c3ccc(O[C@H]4CCN(C(=O)CO)C[C@H]4F)c(C#N)c3)ccn2)cn1 (stereo partly drawn) [Example 77, N-(4-(3-cyano-4-(((3R,4S)-3-fluoro-1-(2-hydroxyacetyl)piperidin-4-yl)oxy)phenyl)pyridin-2-yl)-2-(1-methyl-1H-pyrazol-4-yl)cyclopropane-1-carboxamide]
6.1 | 31.3 | N#Cc1cc(-c2cc(NC(=O)C3CC3)ncn2)ccc1O[C@H]1CCN(C(=O)[C@@H](O)CO)C[C@H]1F [Example 21, N-(6-(3-cyano-4-(((3R,4S)-1-((S)-2,3-dihydroxypropanoyl)-3-fluoropiperidin-4-yl)oxy)phenyl)pyrimidin-4-yl)cyclopropanecarboxamide]
